# Measurements published in patent US9617225B2 (VIROSTATICS SRL, priority 2012, dated 2017).
# Counter-ions that a name gives are not always drawn.
# Target: human CDK9/CyclinT kinase complex (Homo sapiens (Human), UniProt P50750)
# Experiment: In Vitro CDK9/CyclinT Assay (IMAP fluorescent polarization)
# Type: biochemical
# Conditions: not given
# Description: In Vitro CDK9/CyclinT Assay
# The activity of the compounds described in the present invention can be determined by measuring the phosphorylation of a fluorescently-labeled peptide by human CDK9/CyclinT kinase complex by fluorescent polarization using a commercially available IMAP Screening Express Assay Kit (Molecular devices).
# Test compounds were diluted in 100% DMSO to 5 mM stock concentration, then further dilutions were made in H2O or 100% DMSO to desirable concentrations. Each reaction consisted of 5 nM enzyme: CDK9/CyclinT (Proqinase cat#0371-0345-1), 400 nM TAMRA-Rbtide (synthetic 15-mer peptide derived from human retinoblastoma tumor suppressor protein labeled with TAMRA dye, Genecust Europe), 12 μM ATP (=Kmapp, Sigma-Aldrich) and kinase buffer: 20 mM MOPS pH 7 (Sigma-Aldrich), 1 mM DTT (Sigma-Aldrich), 10 mM MgCl2 (Sigma-Aldrich), 0.01% Tween 20 (Sigma-Aldrich).
# For each reaction, 4 or 6 μl containing TAMRA-Rbtide, ATP and kianse buffer were combined with 2 μl diluted compound in H2O or 0.028 μl compound in 100% DMSO. The kinase reaction was started by the addition of 2 μl diluted enzyme. The reaction was allowed to run for 1 hour at room temperature. The reaction was stopped by adding 15 μl IMAP beads (1:400 beads in progressive (100% buffer A) 1× buffer).
# Sequence of human CDK9/CyclinT kinase complex (P50750 whole entry): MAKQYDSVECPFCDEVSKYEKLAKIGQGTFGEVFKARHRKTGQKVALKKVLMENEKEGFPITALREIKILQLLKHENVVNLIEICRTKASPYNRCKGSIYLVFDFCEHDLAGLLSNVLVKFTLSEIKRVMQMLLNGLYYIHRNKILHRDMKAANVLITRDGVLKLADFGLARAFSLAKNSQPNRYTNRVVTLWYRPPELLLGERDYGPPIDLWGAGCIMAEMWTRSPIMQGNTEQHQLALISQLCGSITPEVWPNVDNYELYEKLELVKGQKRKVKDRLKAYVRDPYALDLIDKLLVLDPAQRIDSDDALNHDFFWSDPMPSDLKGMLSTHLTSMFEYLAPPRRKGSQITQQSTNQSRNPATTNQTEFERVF
# Sequence of human CDK9/CyclinT kinase complex (O60563 whole entry partner): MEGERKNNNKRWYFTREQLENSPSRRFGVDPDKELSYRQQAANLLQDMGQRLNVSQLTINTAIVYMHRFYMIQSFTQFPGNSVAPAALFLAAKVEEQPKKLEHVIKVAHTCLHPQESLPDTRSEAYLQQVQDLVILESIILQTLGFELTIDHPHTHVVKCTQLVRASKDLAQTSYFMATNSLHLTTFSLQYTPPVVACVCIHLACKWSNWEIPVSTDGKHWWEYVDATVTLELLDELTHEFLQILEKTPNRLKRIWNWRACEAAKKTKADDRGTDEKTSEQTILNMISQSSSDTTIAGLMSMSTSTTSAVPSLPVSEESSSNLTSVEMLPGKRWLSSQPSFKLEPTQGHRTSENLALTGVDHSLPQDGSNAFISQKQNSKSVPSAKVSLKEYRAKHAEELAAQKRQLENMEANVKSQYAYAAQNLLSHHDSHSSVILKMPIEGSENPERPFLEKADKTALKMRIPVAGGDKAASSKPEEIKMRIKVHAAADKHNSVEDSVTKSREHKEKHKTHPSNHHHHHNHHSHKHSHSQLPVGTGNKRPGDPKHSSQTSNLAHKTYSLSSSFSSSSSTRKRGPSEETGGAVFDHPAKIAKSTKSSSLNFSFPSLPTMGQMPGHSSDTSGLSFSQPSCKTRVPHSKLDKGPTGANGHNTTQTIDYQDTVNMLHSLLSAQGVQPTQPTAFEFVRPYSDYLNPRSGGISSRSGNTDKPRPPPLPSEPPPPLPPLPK
row,Compound,IC50 [nM]
1,"COc1ccccc1-c1cc(Nc2ccc(N(C)C)c(C(N)=O)c2)ncn1 [Example 109, 2-Dimethylamino-5-[6-(2-methoxy-phenyl)-pyrimidin-4-ylamino]-benzamide]",< 1000
2,"COc1ccc(-c2cc(Nc3ccc(OC)c([N+](=O)[O-])c3)ncn2)cc1 [Example 65, (4-Methoxy-3-nitro-phenyl)-[6-(4-methoxy-phenyl)-pyrimidin-4-yl]-amine]",> 10000
3,"COc1ccc(Nc2cc(-c3ccccc3OC)ncn2)cc1NC(C)=O [Example 50, N-{2-Methoxy-5-[6-(2-methoxy-phenyl)-pyrimidin-4-ylamino]-phenyl}-acetamide]",< 1000
4,"COc1cc(F)ccc1-c1cc(Nc2ccc(F)c([N+](=O)[O-])c2)ncn1 [Example 102, [6-(4-Fluoro-2-methoxy-phenyl)-pyrimidin-4-yl]-(4-fluoro-3-nitro-phenyl)-amine]",< 10000
5,"COc1cc(Nc2cc(-c3ccccc3OC)ncn2)ccc1OCc1ccccc1 [Example 120, (4-Benzyloxy-3-methoxy-phenyl)-[6-(2-methoxy-phenyl)-pyrimidin-4-yl]-amine]",< 10000
6,"COC(=O)N(C)c1cc(Nc2cc(-c3ccccc3OC)ncn2)ccc1OC [Example 98, {2-Methoxy-5-[6-(2-methoxy-phenyl)-pyrimidin-4-ylamino]-phenyl}-methyl-carbamic acid methyl ester hydrochloride]",< 1000
7,"COc1ccccc1-c1cc(Nc2ccc(N(C)C)c(O)c2)ncn1 [Example 108, 2-Dimethylamino-5-[6-(2-methoxy-phenyl)-pyrimidin-4-ylamino]-phenol]",< 1000

# Same assay, conditions: Table 1
row,Compound,IC50 [nM]
1,"COc1cc(Nc2cc(-c3ccccc3OC)ncn2)ccc1NS(C)(=O)=O [Example 60, N-{2-Methoxy-4-[6-(2-methoxy-phenyl)-pyrimidin-4-ylamino]-phenyl}-methanesulfonamide]",< 1000
2,"COc1cc(Nc2cc(-c3ccccc3OC)ncn2)ccc1C(=O)NCCO [Example 135, N-(2-Hydroxy-ethyl)-2-methoxy-4-[6-(2-methoxy-phenyl)-pyrimidin-4-ylamino]-benzamide]",< 1000
3,"COc1cc(F)c(F)cc1-c1cc(Nc2ccc(OC)c([N+](=O)[O-])c2)ncn1 [Example 82, [6-(4,5-Difluoro-2-methoxy-phenyl)-pyrimidin-4-yl]-(4-methoxy-3-nitro-phenyl)-amine]",> 10000
4,"COc1ccccc1-c1cc(Nc2ccc(Oc3ccccc3)c(N)c2)ncn1 [Example 97, N^1-[6-(2-Methoxy-phenyl)-pyrimidin-4-yl]-4-phenoxy-benzene-1,3-diamine]",< 10000
5,"COc1ccc(Nc2cc(-c3ccc(F)cc3OC)ncn2)cc1NC(N)=O [Example 119, {5-[6-(4-Fluoro-2-methoxy-phenyl)-pyrimidin-4-ylamino]-2-methoxy-phenyl}-urea]",< 1000
6,"COc1ccc(Nc2cc(-c3ccccc3OC(C)C)ncn2)cc1[N+](=O)[O-] [Example 78, [6-(2-Isopropoxy-phenyl)-pyrimidin-4-yl]-(4-methoxy-3-nitro-phenyl)-amine]",< 10000
7,"COc1ccc(Nc2cc(-c3cc(F)c(F)cc3OC)ncn2)cc1NC=O [Example 84, N-{5-[6-(4,5-Difluoro-2-methoxy-phenyl)-pyrimidin-4-ylamino]-2-methoxy-phenyl}-formamide]",< 1000
8,"COc1cc(Nc2cc(-c3ccccc3OC)ncn2)ccc1O [Example 121, 2-Methoxy-4-[6-(2-methoxy-phenyl)-pyrimidin-4-ylamino]-phenol]",< 100
9,"CNC(=O)Nc1cc(Nc2cc(-c3ccccc3OC)ncn2)ccc1OC [Example 52, 1-{2-Methoxy-5-[6-(2-methoxy-phenyl)-pyrimidin-4-ylamino]-phenyl}-3-methyl-urea]",< 1000
10,"CCOc1ccc(Nc2cc(-c3ccccc3OC)ncn2)cc1O [Example 110, 2-Ethoxy-5-[6-(2-methoxy-phenyl)-pyrimidin-4-ylamino]-phenol]",< 1000
11,"COc1ccccc1-c1cc(Nc2ccc([N+](=O)[O-])c(F)c2)ncn1 [Example 57, (3-Fluoro-4-nitro-phenyl)-[6-(2-methoxy-phenyl)-pyrimidin-4-yl]-amine]",< 10000
12,"COc1ccc(Nc2cc(-c3ccccc3OC)ncn2)cc1C1=CCNCC1 [Example 116, [6-(2-Methoxy-phenyl)-pyrimidin-4-yl]-[4-methoxy-3-(1,2,3,6-tetrahydro-pyridin-4-yl)-phenyl]-amine]",< 100
13,"COC(=O)Oc1cc(Nc2cc(-c3ccc(F)cc3OC)ncn2)ccc1OC [Example 125, Carbonic acid 5-[6-(4-fluoro-2-methoxy-phenyl)-pyrimidin-4-ylamino]-2-methoxy-phenyl ester methyl ester]",< 1000
14,"CNc1cc(Nc2cc(-c3ccccc3OC)ncn2)ccc1OC [Example 99, 4-Methoxy-N^1-[6-(2-methoxy-phenyl)-pyrimidin-4-yl]-N^3-methyl-benzene-1,3-diamine]",< 1000
15,"COc1ccc(Nc2cc(-c3ccccc3Oc3ccccc3)ncn2)cc1[N+](=O)[O-] [Example 76, (4-Methoxy-3-nitro-phenyl)-[6-(2-phenoxy-phenyl)-pyrimidin-4-yl]-amine]",> 10000
16,"COc1cc(F)ccc1-c1cc(Nc2ccc(N(C)C)c(C(N)=O)c2)ncn1 [Example 113, 2-Dimethylamino-5-[6-(4-fluoro-2-methoxy-phenyl)-pyrimidin-4-ylamino]-benzamide]",< 100
17,"CCOc1cc(F)ccc1-c1cc(Nc2ccc(OC)c([N+](=O)[O-])c2)ncn1 [Example 72, [6-(2-Ethoxy-4-fluoro-phenyl)-pyrimidin-4-yl]-(4-methoxy-3-nitro-phenyl)-amine]",< 1000
18,"COc1ccccc1-c1cc(Nc2cc(F)c(OC)c([N+](=O)[O-])c2)ncn1 [Example 87, (3-Fluoro-4-methoxy-5-nitro-phenyl)-[6-(2-methoxy-phenyl)-pyrimidin-4-yl]-amine]",< 10000
19,"CCOc1ccc(Nc2cc(-c3ccc(F)cc3OC)ncn2)cc1[N+](=O)[O-] [Example 103, (4-Ethoxy-3-nitro-phenyl)-[6-(4-fluoro-2-methoxy-phenyl)-pyrimidin-4-yl]-amine]",< 1000
20,"COc1ccc(Nc2cc(-c3ccccc3OC)ncn2)cc1NC(=O)C(C)(C)C [Example 53, N-{2-Methoxy-5-[6-(2-methoxy-phenyl)-pyrimidin-4-ylamino]-phenyl}-2,2-dimethyl-propionamide]",< 1000
21,"COc1ccc(Nc2cc(-c3ccccc3OC)ncn2)cc1NC(N)=O [Example 56, {2-Methoxy-5-[6-(2-methoxy-phenyl)-pyrimidin-4-ylamino]-phenyl}-urea]",< 1000
22,"COc1ccc(Nc2cc(-c3ccccc3OC)ncn2)cc1C(=O)NCCO [Example 48, N-(2-Hydroxy-ethyl)-2-methoxy-5-[6-(2-methoxy-phenyl)-pyrimidin-4-ylamino]-benzamide]",< 1000
23,"COc1cc(F)ccc1-c1cc(Nc2ccc(OC)c([N+](=O)[O-])c2)ncn1 [Example 63, [6-(4-Fluoro-2-methoxy-phenyl)-pyrimidin-4-yl]-(4-methoxy-3-nitro-phenyl)-amine]",< 1000
24,"CCOc1ccccc1-c1cc(Nc2ccc(OC)c([N+](=O)[O-])c2)ncn1 [Example 61, [6-(2-Ethoxy-phenyl)-pyrimidin-4-yl]-(4-methoxy-3-nitro-phenyl)-amine]",< 1000
